PMC9445589, “Apolipoprotein E mimetic peptide COG1410 combats pandrug-resistant Acinetobacter baumannii” (Frontiers in Microbiology, 2022)
In brackets after ≈: the same amount, converted by molar mass. Entries after “also recorded” stand apart in the source; their conditions may differ. Non-standard residues stand in square brackets, D forms with d. Residues, ends and D or L forms follow the SMILES beside them. Aib = CC(C)(N)C(=O)O

Experiments:
[1] = cytotoxicity assay, Cell Counting Kit 8; conditions: human, L02 cells (human hepatic, normal liver cell)
Experimental: Briefly, 100 μl of human hepatic L02 cells was seeded in the 96-well plate with 4 × 10^3 per well in RPMI-1640 medium containing 20% FBS and incubated at 37°C in a 5% CO2 atmosphere for 24 h. The cells without exposure to peptides were used as a negative control. Then, the L02 cells were incubated with different concentrations of COG1410 for another 24 h. Then, 10 μl of CCK8 solution was added to each well. After 2 h of incubation, the optical absorbance at 450 nm was measured with a BioTek synergy H1 plate reader. […] The experiments were done in triplicate.

[2] = tested on: Porphyromonas gingivalis ATCC33277
A. baumannii YQ4 [3] = assay: ATP leak assay; type: cell-based, Acinetobacter baumannii; conditions: 16 μg/ml COG1410, 16 μg/ml polymyxin B or 32 μg/ml tigecycline (1× MIC), PBS, 37°C, 30 min
Experimental: ATP leak assay was performed using the Enhanced ATP Assay Kit of Beyotime ([…]) according to the manufacturer's manual. […] The supernatant was harvested and used for the measurement of ATP levels. In total, 100 μl of supernatant was mixed with 100 μl of working solution, and the chemiluminescence was measured by using a Biotek Synergy H1 plate reader. The untreated sample was set as a negative control. The experiments were performed in triplicate.

[4] = tested on: Caenorhabditis elegans (Bristol N2) infected with A. baumannii YQ4; assay: nematode killing assay, C. elegans infection model; conditions: 16 μg/ml COG1410 in NGM plate, versus untreated group
A. baumannii = conditions: 1× MIC, PBS, 2 h
[5] = tested on: MDR Mycobacterium tuberculosis 6–45; conditions: microdilution method, 7H9 broth
[6] = tested on: EBSL-producing Proteusbacillus vulgaris YQ19; conditions: microdilution method in the corresponding broth
[7] = tested on: vancomycin-resistant Enterococcus faecalis 11–34; conditions: vancomycin-resistant 11–34
A. baumanii YQ4 = assay: induction of resistance through serial passage; conditions: sub-MIC exposure, 55 passages
[8] = tested on: MDR Klebsiella oxytoca 7–85; conditions: microdilution method in the corresponding broth
A. baumannii YQ4 [9] = assay: scanning electron microscopy (SEM) of treated cells; type: cell-based, Acinetobacter baumannii; conditions: 1× MIC (16 μg/ml), PBS, 37°C, 30 min
Experimental: The log-phase culture of A. baumannii YQ4 was prepared as described above, harvested, and washed once with PBS. The pellets were suspended in PBS supplemented with 1 × COG1410 (16 μg/ml) or 1 × polymyxin B (16 μg/ml) and incubated at 37°C for 30 min. The untreated culture was used as a positive control to observe the morphology of the intact cell. […] After washing three times with PBS, the cells were post-fixed in 1% osmium at 4 °C for 1 h. After washing in distilled water for 1 h, the bacteria were dehydrated in the ascending concentrations of ethanol. Finally, these samples were transferred to ThermoFisher Quattro SEM for image collection after tert-butanol freeze-drying and sputter coating.

[10] = tested on: Mycobacterium tuberculosis H37Rv; conditions: microdilution method, 7H9 broth
[11] = tested on: EBSL-producing Klebsiella pneumoniae YQ7; conditions: microdilution method in the corresponding broth
A. baumannii YQ4 biofilm = assay: static biofilm inhibition, crystal violet; type: cell-based, Acinetobacter baumannii; conditions: 48 h
Experimental: Static biofilm inhibition was performed as described previously (Gaddy and Actis, [2009]). Briefly, the log-phase culture of A. baumannii YQ4 was prepared as described above. About 200 μl of culture was seeded in each cell of the 96-well PVC plate with OD600 of 0.01 (ca. 1 × 10^6 CFU/ml), which was exposed to different COG1410 solutions with the final concentrations ranging from 0.5 to 128 μg/ml. Each concentration was determined in eight wells. After incubation at 37°C for 48 h, the planktonic bacteria were removed by washing three times with sterilized water, followed by fixing in methanol for 15 min and staining with 0.1% crystal violet (CV) for 15 min. Excess CV was washed off, and the bound CV was eluted from the biofilm into 150 μl of 95% ethanol and quantitated spectrophotometrically at 600 nm using a Biotek Synergy H1 plate reader. The experiments were performed in triplicate.

[12] = tested on: MDR Streptococcus pneumoniae 10–58; conditions: microdilution method in the corresponding broth
[13] = tested on: Mycobacterium smegmatis MC^2155; conditions: Mycobacterium MC^2155
[14] = tested on: MDR Pseudomonas aeruginosa 14–61; conditions: microdilution method in the corresponding broth
[15] = tested on: MDR Citrobacter freundii 7–83; conditions: microdilution method in the corresponding broth
[16] = stability in human plasma, disk diffusion read-out; conditions: 100% human plasma, 10 mg/ml, 37°C, first 2 h; disk diffusion on A. baumannii YQ4, three independent experiments
Experimental: In order to determine the stability in human plasma, COG1410 was dissolved in1 ml of 100 % human plasma with the final concentration of 10 mg/ml and incubated at 37°C without shaking. Aliquots of 100 μl were taken at 0, 1, 2, 4, 6, 8, and 10 h. The log-phase culture of A. baumannii YQ4 was prepared as described above. About 200 μl of culture was mixed with 6 ml of 0.8% soft agar to make a two-layered plate. After air drying for 30 min, four 6-mm paper disks were placed on the top, and 6-μl aliquots of COG1410 at different time points were dropped on the paper disks. After 18 h of incubation at 37°C, the inhibition zones were recorded by a digital camera, and the inhibition diameters were measured by image J. Three independent experiments were performed.
About 10 mg/ml of COG1410 was incubated with 100% human plasma at 37°C and sampled at different time points. The stability of COG1410 was determined by evaluating the antibacterial activity against PDR A. baumannii YQ4 through the disk diffusion assay. The diameters of inhibition were measured. Three independent experiments were performed and data were represented as mean ± SD. The statistical significance between initial and different points was analyzed by Student's t-test. ^* indicated p < 0.05; ^*** indicated p < 0.001. Click here for additional data file.

[17] = tested on: Acinetobacter baumannii ATCC19606
[18] = tested on: Pseudomonas aeruginosa PAO1; assay: MIC, microdilution method; type: cell-based; conditions: microdilution method in the corresponding broth
Experimental: (§1) Strain stocks were maintained at −80°C in 10% glycerol. Bacteria were streaked on fresh plates before each experiment. Most of them were cultured in LB broth containing 10 g/L NaCl at 37°C, except for Mycobacteria in 7H9 broth and Enterococcus in BHI broth. Porphyromonas gingivalis was cultured in BHI broth supplemented with 1 μg/ml vitamin k1, 5 μg/ml hemin, and 5 mg/ml L-cysteine hydrochloride at 37°C in the anaerobic chamber. The minimal inhibitory concentrations (MICs) of antimicrobials were determined using the microdilution method in the corresponding broth.

[19] = tested on: Staphylococcus aureus ATCC29213; assay: MIC, microdilution method; type: cell-based; conditions: microdilution method in the corresponding broth
Experimental: as §1

[20] = tested on: A. baumannii YQ4 intracellular ROS; assay: ROS detection, DCFH-DA probe; type: cell-based, Acinetobacter baumannii; conditions: 16 μg/ml
Experimental: The intracellular ROS level was determined by the Reactive Oxygen Species Assay Kit of Beyotime Biotechnology (S0033S), according to the manufacturer's instructions. The log-phase culture of A. baumannii YQ4 was harvested and washed in PBS, and then diluted 10 times, approximately 10^7 CFU/ml. In total, 1 μl of DCFH-DA (10 μM) was added to 1 ml of cell culture and incubated at 37°C for 20 min. Then the fluorescence probe was fully removed by washing with PBS three times and resuspending in PBS, followed by the addition of COG1410 (16 μg/ml) or water. Rosup (50 μg/ml) was positive control in the kit. The culture was incubated at 37°C for 30 min. The fluorescence intensity was measured by a plate reader at an excitation wavelength of 488 nm and an emission wavelength of 525 nm. The experiment was performed in duplicate.

A. baumannii YQ4 [21] = assay: dynamic time-kill assay in PBS
A. baumannii YQ4 [22] = assay: transmission electron microscopy (TEM) of treated cells; conditions: 1× MIC (16 μg/ml), PBS, 37°C, 30 min
[23] = tested on: A. baumannii ATCC19606 and two LPS-modified strains, pmrA^P102R and pmrA^P102RmiaA^I221V; assay: MIC against LPS-modified strains; type: cell-based, Acinetobacter baumannii; conditions: MIC in LB broth, wild type versus mutants
Experimental: The growth curve was measured in duplicate, with eight wells for each treatment in a 96-well plate each time. […] Experiments were conducted in triplicate. Data indicated mean ± SD values.

## CC(=O)N[C@@H](C)C(=O)N[C@@H](CO)C(=O)NC(C)(C)C(=O)N[C@@H](CC(C)C)C(=O)N[C@@H](CCCNC(=N)N)C(=O)N[C@@H](CCCCN)C(=O)N[C@@H](CC(C)C)C(=O)NC(C)(C)C(=O)N[C@@H](CCCCN)C(=O)N[C@@H](CCCNC(=N)N)C(=O)N[C@@H](CC(C)C)C(=O)N[C@@H](CC(C)C)C(N)=O [COG1410, acetyl-AS-Aib-LRKL-Aib-KRLL-amide] (Ac-AS[Aib]LRKL[Aib]KRLL-NH2)
[1]
  EC50 at 24 h: 58.9 µg/mL (≈ 41.8 µM)
[2]
  MIC: 32 µg/mL (≈ 22.7 µM)
A. baumannii YQ4 [3]
  ATP leak (extracellular ATP): significantly more than untreated control and tigecycline treatment group
[4]
  survival of infected nematodes: alleviated the death of infected nematodes but not statistically significantly
A. baumannii
  A. baumannii population killed, in words: almost complete elimination
[5]
  MIC: 16 µg/mL (≈ 11.4 µM)
[6]
  MIC: >256 µg/mL
[7]
  MIC: 32 µg/mL (≈ 22.7 µM)
A. baumanii YQ4
  increase of MIC after serial passage: 4 fold
[8]
  MIC: >256 µg/mL
A. baumannii YQ4 [9]
  cell morphology by SEM: intact, with little debris observed
[10]
  MIC: 16 µg/mL (≈ 11.4 µM)
[11]
  MIC: >256 µg/mL
A. baumannii YQ4 biofilm; 1/2 MIC, crystal violet
  biofilm formation, in words: significantly reduced biofilm formation
A. baumannii YQ4 biofilm; 1× MIC, 37°C, crystal violet OD600, versus untreated control
  reduction of biofilm mass: 55%
[12]
  MIC: >256 µg/mL
[13]
  MIC: 16 µg/mL (≈ 11.4 µM)
[14]
  MIC: >256 µg/mL
[15]
  MIC: 16 µg/mL (≈ 11.4 µM)
[16]
  change of inhibition diameter / degradation: did not significantly change; also recorded: does not seem to be significantly degraded
[17]
  MIC: 16 µg/mL (≈ 11.4 µM)
[18]
  MIC: >256 µg/mL
[19]
  MIC: >256 µg/mL
[20]; 37°C, Figure 3D
  ROS production, in words: significantly lead to more ROS production
[20]; treatment for 20 min as printed
  more ROS detected by DCFH-DA probe: 30%
Bacillus subtilis 168
  MIC: 1 µg/mL (≈ 0.71 µM)
A. baumannii YQ4 [21]; 5 × MIC (80 μg/ml), within 5 min, PBS, inoculum 1 × 10^8 CFU/ml
  elimination of the inoculum: completely eliminated
A. baumannii YQ4 [21]; inocula 10^8 CFU/ml
  time to eliminate large inocula: ≤ 30 min
A. baumannii YQ4 [22]
  cell membrane integrity by TEM: wrinkled and smaller compared with untreated cells
[23]
  effect of lipid A modification of LPS on antimicrobial efficacy: did not change the antimicrobial efficacy
